Values quoted from earlier work as cited in paper PMC3907537, “Evaluation of the Endothelin Receptor Antagonists Ambrisentan, Bosentan, Macitentan, and Sitaxsentan as Hepatobiliary Transporter Inhibitors and Substrates in Sandwich-Cultured Human Hepatocytes” (PLoS ONE, 2014).
“And” between values parts separate entries of the source, which are not always exact repeats. Identical values can stand only once.

Columns and labels:
canine BCRP = test system: canine BCRP; set-up: method as in PMID 23353592; details: cited from earlier work
[1] = cited from earlier work

SMILES: CCCNS(=O)(=O)Nc1ncnc(OCCOc2ncc(Br)cn2)c1-c1ccc(Br)cc1 [macitentan]
- IC50 (canine BCRP): 13.2 µM and 13 µM
- elevations >8X ULN on macitentan compared to placebo ([1]; SERAPHIN ref 19): ~5 fold
- incidence of serum aminotransferase elevations >3X ULN ([1]; SERAPHIN, PAH patients, up to 103.9 weeks, placebo 4.5% ref 17, 19): 3.4%
- incidence of aminotransferase elevations >8X ULN ([1]; SERAPHIN, placebo 0.4% ref 19): 2.1%
